Where two headings read alike, the source gives them in different places.
Key:
SK-BR-3 cells = experiment: SKBR3 cell-based anti-proliferation / viability assay (CellTiter-Glo); design: species or system human; conditions: for EC50 / IC50: Homo sapiens; for IC50: SK-BR-3, 144 h
Experimental: (§1) The anti-Her2 viability assay protocol is following.
(§2) 0.1% BSA was added to the Opti-MEM reduced serum media [Gibco, cat #31985-070]. This assay media was used for the dilution of ADC and free drug.
(§3) Cells were seeded in their growth media into 96 well plates (Thermo #136101) one day prior to adding ADCs: 1000/well SKBR3 cells in 80 uL media (target positive cells), 1000/well NCI-N87 cells in 80 uL media (target positive cells), 1000/well Calu-3 in 80 uL media (target positive cells), and 800/well NCI-H1975 cells in 80ul media (target negative cells).
(§4) Serial dilutions of free drug in 100% DMSO (1:4 10 pts starting from 100 uM) were prepared. Serially diluted payload was transferred into Opti-Mem with 0.1% BSA (10 uL into 990 uL media). Serial dilutions of ADCs/isotype controls at 1:4 in Opti-Mem with 0.1% BSA (starting from 5×1000 nM) were prepared. 20ul assay media diluted ADC/isotype conjugates as well as free drug were transferred to above cells. The plates were incubated at 37° C., 5% CO2 for 6 days. Plates were developed by adding 100ul CellTiter Glo 2.0. RT 5-10 min. Plates were read with Envision plate reader. Data was analyzed using Prism. Only inner 60 well are used for the assay. The edge wells were filled with media to prevent dry out.
The cell line used in the anti-proliferation assays was SK-BR-3, a human breast, adenocarcinoma (pleural effusion) cell line; The cells were grown in McCoy's 5a Medium+10% FBS. To run the assay, the cells (80 μl, 1000 cells) were added to each well in a 96-well plate and incubated for 24 hours at 37° C. with CO2. Next, the cells were treated with test compounds (20 μl) at various concentrations in appropriate cell culture medium (total volume, 0.1 mL). The control wells contain cells and the medium but lack the test compounds. The plates were incubated for 144 hours at 37° C. with CO2. CTG reagent was then added to the wells (100 μl). After the plates were shaken for 10 min and then incubated for 10 min at room temperature, paste the clear bottom with white back seal and record luminescence with Envision. The inhibition % was calculated according to the following equation: inhibition %=[1-(assay-blank)/(control-blank)]×100.

in vitro = conditions: human, plasma
[1] = Mouse whole blood stability test; format: in vitro ADME; conditions: for % of test compound in whole blood (initial 1 uM as 100%): 37° C.
Experimental: In vitro stability of Linker-Prodrug in mouse whole blood Scheme 15. Metabolism of LP1 (M2980) in whole blood.
Stock solution of test compound was provided in 100% DMSO. The stock solution for each compound was diluted into 500 μM with mixture of 50% acetonitrile, then diluted into mouse blood to achieve a final concentration of 1.0 μM. 1.0 μM of test compound in duplicate was incubated in blood at 37° C. Aliquots of 50 uL sample was collected at 0, 15, 30, 60, 120, 240, 480 min, and 24 hours. Reactions were terminated at various time points (0, 15, 30, 60, 120, 240, 480 min, 24 hours) by adding 200 μL of ice-cold acetonitrile containing internal standard with 1% formic acid and then ultrasound for 30 seconds. Plate was centrifuged (4000 rpm, 15 min). 50 μL of supernatants were transferred into a daughter plate containing 200 μL of H2O in each well. The samples were mixed well and analyzed with UPLC-MS/MS.
A Waters liquid chromatographic system was used. Detection was performed on AP14000 Q-Trap and AP15500 mass spectrometer equipped with TurbolonSpray (ESI) Interface (Applied Biosystems, Concord, Ontario, Canada). Analyst 1.5 and 1.6.2 software packages (Applied Biosystems) were used to control the LC-MS/MS system, as well as for data acquisition and processing.
Chromatographic separation was achieved on the Wates BEH C18 column (50*2.1 mm ID, 1.7 μm). The column temperature was maintained at ambient temperature (25° C.). The flow rate was maintained at 0.6 mL/min and the following mobile phases were used: water (0.1% formic acid, v/v) (phase A) and acetonitrile (0.1% formic acid, v/v) (phase B).
Test compounds (1.0 μM) were incubated in blood at 37° C. in duplicate. Aliquots of 50 uL sample was collected at 0, 15, 30, 60, 120, 240, 480 min, and 24 hours. Reactions were terminated at various time points (0, 15, 30, 60, 120, 240, 480 min, 24 hours by adding 200 μL of ice-cold acetonitrile containing internal standard with 1% formic acid, then ultrasound for 30 seconds. The plate was centrifuged (4000 rpm, 15 min). 50 μL of supernatants were transferred into a daughter plate containing 200 μL of water in each well. Samples were mixed well and analyzed with UPLC-MS/MS.
The % was calculated based on initial 1 uM as 100% and the standard concentration curve.

JIMT-1 = experiment: in vitro cell killing activity, JIMT-1 cells (CellTiter Glo viability); format: cell-based; conditions: for IC50: Homo sapiens
Experimental: as §4

NCI-N87 cells = experiment: anti-Her2 viability assay, NCI-N87 cells (target positive); format: cell-based; conditions: for IC50: Homo sapiens
Experimental: as §1, §2, §3, §4

NCI-H1975 cells = experiment: anti-Her2 viability assay, NCI-H1975 cells (target negative); format: cell-based; conditions: for IC50: Homo sapiens
Experimental: as §1, §2, §3, §4

Calu-3 = experiment: anti-Her2 viability assay, Calu-3 cells (target positive); format: cell-based; conditions: for IC50: Homo sapiens
Experimental: as §1, §2, §3, §4

[2] = SKBR3 target positive cells, 6 days
[3] = NCI-H1975 target negative cells, 6 days
[4] = Calu-3 target positive cells, 6 days

CC[C@@]1(O)C(=O)OCc2c1cc1n(c2=O)Cc2c-1nc1cc(F)c(C)c3c1c2[C@@H](NC(=O)COCNC(=O)[C@H](N)Cc1ccccc1)CC3 [P12, (2R)-2-amino-N-[({[(10S,23S)-10-ethyl-18-fluoro-10-hydroxy-19-methyl-5,9-dioxo-8-oxa-4,15-diazahexacyclo[14.7.1.0^2,14.0^4,13.0^6,11.0^20,24]tetracosa-1,6(11),12,14,16,18,20(24)-heptaen-23-yl]carbamoyl}methoxy)methyl]-3-phenylpropanamide]
EC50 (SK-BR-3 cells; SK-BR-3, read-out: SKBR3 EC50): 15.3 nM

CC[C@@]1(O)C(=O)OCc2c1cc1n(c2=O)Cc2c-1nc1cc(F)c(C)c3c1c2[C@@H](NC(=O)COCNC(=O)C(C)(C)N)CC3 [P11, 2-amino-N-[({[(10S,23S)-10-ethyl-18-fluoro-10-hydroxy-19-methyl-5,9-dioxo-8-oxa-4,15-diazahexacyclo[14.7.1.0^2,14.0^4,13.0^6,11.0^20,24]tetracosa-1,6(11),12,14,16,18,20(24)-heptaen-23-yl]carbamoyl}methoxy)methyl]-2-methylpropanamide]
EC50 (SK-BR-3 cells; SK-BR-3, read-out: SKBR3 EC50): 27.7 nM

CC[C@@]1(O)C(=O)OCc2c1cc1n(c2=O)Cc2c-1nc1cc(F)c(C)c3c1c2[C@@H](NC(=O)COCNC(=O)[C@@H](N)CCCCN)CC3 [P5, (2S)-2,6-diamino-N-[({[(10S,23S)-10-ethyl-18-fluoro-10-hydroxy-19-methyl-5,9-dioxo-8-oxa-4,15-diazahexacyclo[14.7.1.0^2,14.0^4,13.0^6,11.0^20,24]tetracosa-1,6(11),12,14,16,18,20(24)-heptaen-23-yl]carbamoyl}methoxy)methyl]hexanamide]
half-life (in vitro): 49.4 h
Human plasma stability % Remaining at 24 h: 69.7%
EC50 (SK-BR-3 cells; SK-BR-3, read-out: SKBR3 EC50): 4.51 nM
half-life at 1 μM ([1]; mouse, blood): 0.4 h
Mouse blood stability % Remaining at 24 h ([1]; mouse, blood, 1 μM): 1.3%

CC[C@@]1(O)C(=O)OCc2c1cc1n(c2=O)Cc2c-1nc1cc(F)c(C)c3c1c2[C@@H](NC(=O)COCNC(=O)CN)CC3 [P1, 2-Amino-N-[({[(10S,23S)-10-ethyl-18-fluoro-10-hydroxy-19-methyl-5,9-dioxo-8-oxa-4,15-diazahexacyclo[14.7.1.0^2,14.0^4,13.0^6,11.0^20,24]tetracosa-1,6(11),12,14,16,18,20(24)-heptaen-23-yl]carbamoyl}methoxy)methyl]acetamide]
IC50 (JIMT-1; JIMT-1 cells, read-out: JIMT-1 IC50): 26.6 nM
JIMT-1 % Kill (JIMT-1; JIMT-1 cells): 89.8%
half-life (in vitro): 49.6 h
IC50 (NCI-N87 cells; 144 h, NCI-N87 target positive cells, 6 days, read-out: N87 IC50): 9.25 nM
N87 % Kill (NCI-N87 cells; NCI-N87 target positive cells, 6 days): 98.0%
Human plasma stability % Remaining at 24 h: 72.4%
IC50 (SK-BR-3 cells; SKBR3 target positive cells, 6 days, CellTiter Glo, read-out: SKBR3 IC50): 5.81 nM
EC50 (SK-BR-3 cells; SK-BR-3, read-out: SKBR3 EC50): 9.52 nM
SKBR3 % Kill (SK-BR-3 cells; [2]): 96.0%
half-life at 1 μM ([1]; mouse, blood): 0.63 h
Mouse blood stability % Remaining at 24 h ([1]; mouse, blood, 1 μM): 4.1%
IC50 (NCI-H1975 cells; 144 h, NCI-H1975 target negative cells, 6 days, read-out: H1975 IC50): 23.9 nM
H1975 % Kill (NCI-H1975 cells; [3]): 96.4%
Calu-3 % Kill (Calu-3; [4]): 93.1%
IC50 (Calu-3; 144 h, Calu-3 target positive cells, 6 days, read-out: Calu-3 IC50): 6.78 nM

CC[C@@]1(O)C(=O)OCc2c1cc1n(c2=O)Cc2c-1nc1cc(F)c(C)c3c1c2[C@@H](NC(=O)CO)CC3 [Dxd, reference compound]
IC50 (JIMT-1; JIMT-1, read-out: JIMT-1 IC50 (nM)): 4.41 nM
JIMT-1 % Kill (JIMT-1; JIMT-1 cells): 94.5%
IC50 (NCI-N87 cells; NCI-N87, 144 h, read-out: N87 IC50 (nM)): 2.59 nM
IC50 (SK-BR-3 cells; read-out: SKBR3 IC50 (nM)): 1.02 nM
EC50 (SK-BR-3 cells; SK-BR-3, read-out: SKBR3 EC50 (nM)): 1.63 nM
SKBR3 % Kill (SK-BR-3 cells; [2]): 97.0%
% of test compound in whole blood (initial 1 uM as 100%) ([1]; mouse blood, 0 hr): 100.0%
% of test compound in whole blood (initial 1 uM as 100%) ([1]; mouse blood, 0.25 hr): 95.9%
% of test compound in whole blood (initial 1 uM as 100%) ([1]; mouse blood, 0.5 hr): 103.6%
% of test compound in whole blood (initial 1 uM as 100%) ([1]; mouse blood, 1 hr): 111.9%
% of test compound in whole blood (initial 1 uM as 100%) ([1]; mouse blood, 2 hr): 97.6%
% of test compound in whole blood (initial 1 uM as 100%) ([1]; mouse blood, 4 hr): 94.8%
% of test compound in whole blood (initial 1 uM as 100%) ([1]; mouse blood, 8 hr): 94.2%
% of test compound in whole blood (initial 1 uM as 100%) ([1]; mouse blood, 24 hr): 94.2%
Mouse blood stability % Remaining at 24 h ([1]; mouse blood): 94.8%
half-life at 1 μM ([1]; mouse, blood, read-out: Mouse blood stability T1/2 (converted)): 62.6 h
IC50 (NCI-H1975 cells; NCI-H1975, 144 h, read-out: H1975 IC50 (nM)): 3.45 nM
H1975 % Kill (NCI-H1975 cells; [3]): 99.3%
Calu-3 % Kill (Calu-3; [4]): 94.9%
IC50 (Calu-3; Calu-3, 144 h, read-out: Calu-3 IC50 (nM)): 1.3 nM

CC[C@@]1(O)C(=O)OCc2c1cc1n(c2=O)Cc2c-1nc1cc(F)c(C)c3c1c2[C@@H](NC(=O)COCNC(=O)CNC(=O)CN)CC3 [P8, 2-amino-N-({[({[(10S,23S)-10-ethyl-18-fluoro-10-hydroxy-19-methyl-5,9-dioxo-8-oxa-4,15-diazahexacyclo[14.7.1.0^2,14.0^4,13.0^6,11.0^20,24]tetracosa-1,6(11),12,14,16,18,20(24)-heptaen-23-yl]carbamoyl}methoxy)methyl]carbamoyl}methyl)acetamide]
half-life (in vitro): 144 h
Human plasma stability % Remaining at 24 h: 86.0%
EC50 (SK-BR-3 cells; SK-BR-3, read-out: SKBR3 EC50): 30.8 nM
half-life at 1 μM ([1]; mouse, blood): 2.9 h
Mouse blood stability % Remaining at 24 h ([1]; mouse, blood, 1 μM): 46.9%

CC[C@@]1(O)C(=O)OCc2c1cc1n(c2=O)Cc2c-1nc1cc(F)c(C)c3c1c2[C@@H](NC(=O)COCN(C)C(=O)CN)CC3 [P9, 2-amino-N-[({[(10S,23S)-10-ethyl-18-fluoro-10-hydroxy-19-methyl-5,9-dioxo-8-oxa-4,15-diazahexacyclo[14.7.1.0^2,14.0^4,13.0^6,11.0^20,24]tetracosa-1,6(11),12,14,16,18,20(24)-heptaen-23-yl]carbamoyl}methoxy)methyl]-N-methylacetamide]
EC50 (SK-BR-3 cells; SK-BR-3, read-out: SKBR3 EC50): 69.5 nM

CC[C@@]1(O)C(=O)OCc2c1cc1n(c2=O)Cc2c-1nc1cc(F)c(C)c3c1c2[C@@H](NC(=O)COCNC(=O)[C@@H](N)CCCCN=[N+]=[N-])CC3 [P6, (2S)-2-amino-6-azido-N-[({[(10S,23S)-10-ethyl-18-fluoro-10-hydroxy-19-methyl-5,9-dioxo-8-oxa-4,15-diazahexacyclo[14.7.1.0^2,14.0^4,13.0^6,11.0^20,24]tetracosa-1,6(11),12,14,16,18,20(24)-heptaen-23-yl]carbamoyl}methoxy)methyl]hexanamide]
half-life (in vitro): 28.2 h
Human plasma stability % Remaining at 24 h: 59.0%
EC50 (SK-BR-3 cells; SK-BR-3, read-out: SKBR3 EC50): 2.06 nM
half-life at 1 μM ([1]; mouse, blood): 0.2 h
Mouse blood stability % Remaining at 24 h ([1]; mouse, blood, 1 μM): 3.3%

Source: patent publication US20240269308A1, “PRODRUGS OF TOPOISOMERASE I INHIBITOR FOR ADC CONJUGATIONS AND METHODS OF USE THEREOF” (priority 2022, published 2024)
